Measured values published in PubChem BioAssay AID330 (DTP/NCI, 2004).
Several values for one entry are separate records, joined by “and”; a condition that tells them apart may be missing. Equal values may be shown once. Toxic doses and inconclusive results are not listed.

Tested on: P388 leukemia ip, CD2F1 mice, survival T/C
Experiment: NCI In Vivo Anticancer Drug Screen. Data for tumor model P388 Leukemia (intraperitoneal) in CD2F1 (CDF1) mice
Conditions: endpoint: median survival time, higher = longer survival
How it was run: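 Mice carrying the transplanted tumor received test compound or vehicle. Survival was recorded in each group, and the value is the treated-group measurement divided by that of the vehicle-treated control group.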

[1] = dose: 50.0 mg/kg/injection, schedule: Q01DX005 (ip), vehicle: Klucel (hydroxypropylcellulose) (HPC)
[2] = dose: 100.0 mg/kg/injection, schedule: Q01DX005 (ip), vehicle: Klucel (hydroxypropylcellulose) (HPC)
[3] = dose: 200.0 mg/kg/injection, schedule: Q01DX005 (ip), vehicle: Klucel (hydroxypropylcellulose) (HPC)
[4] = dose: 25.0 mg/kg/injection, schedule: Q01DX005 (ip), vehicle: Klucel (hydroxypropylcellulose) (HPC)
[5] = dose: 100.0 mg/kg/injection, schedule: Q04DX002 (ip), vehicle: saline
[6] = dose: 200.0 mg/kg/injection, schedule: Q04DX002 (ip), vehicle: saline

**Q.** For `CN1OC(C#N)CC1c1ccccc1` (configuration not stated), which T/C (dose: 12.5 mg/kg/injection, schedule: Q04DX002 (ip), vehicle: Klucel (hydroxypropylcellulose) (HPC)) is on record?
**A.** 100 % of control

**Q.** And the T/C (dose: 25.0 mg/kg/injection, schedule: Q04DX002 (ip), vehicle: Klucel (hydroxypropylcellulose) (HPC))?
**A.** 99 % of control and 101 % of control

**Q.** What about the T/C (dose: 50.0 mg/kg/injection, schedule: Q04DX002 (ip), vehicle: Klucel (hydroxypropylcellulose) (HPC)) of the same compound?
**A.** 101 % of control and 112 % of control

**Q.** What about the T/C (dose: 87.5 mg/kg/injection, schedule: Q04DX002 (ip), vehicle: Klucel (hydroxypropylcellulose) (HPC)) of the same compound?
**A.** 101 % of control

**Q.** What about the T/C (dose: 100.0 mg/kg/injection, schedule: Q04DX002 (ip), vehicle: Klucel (hydroxypropylcellulose) (HPC)) of the same compound?
**A.** 103 % of control and 105 % of control and 121 % of control

**Q.** And the T/C (dose: 350.0 mg/kg/injection, schedule: Q04DX002 (ip), vehicle: Klucel (hydroxypropylcellulose) (HPC))?
**A.** 100 % of control

**Q.** With `CCCC/C=C(\C)C(O)C(C)/C=C(\C)CCC(O)C(C)C(O)C(C)C(O)C(C)C1OC(C(C)C(=O)O)CCC1C` (configuration not stated) as the compound, how does the T/C (dose: 1.5 mg/kg/injection, schedule: Q01DX005 (ip), vehicle: Klucel (hydroxypropylcellulose) (HPC)) read?
**A.** 103 % of control and 105 % of control

**Q.** And the T/C (dose: 3.0 mg/kg/injection, schedule: Q01DX005 (ip), vehicle: Klucel (hydroxypropylcellulose) (HPC))?
**A.** 99 % of control and 108 % of control

**Q.** And the T/C (dose: 6.0 mg/kg/injection, schedule: Q01DX005 (ip), vehicle: Klucel (hydroxypropylcellulose) (HPC))?
**A.** 102 % of control and 109 % of control

**Q.** And the T/C (dose: 12.0 mg/kg/injection, schedule: Q01DX005 (ip), vehicle: Klucel (hydroxypropylcellulose) (HPC))?
**A.** 99 % of control and 100 % of control

**Q.** Which results are given for `COc1cccc2c1C(=O)c1c(O)c3c(c(O)c1C2=O)C[C@@](O)(C(=O)CO)C[C@@H]3OC1CC(N(C)C)C(O)C(C)O1` (some centres not stated)?
**A.** T/C (dose: 0.06 mg/kg/injection, schedule: Q01DX009 (ip), vehicle: water): 108 % of control; T/C (dose: 0.13 mg/kg/injection, schedule: Q01DX009 (ip), vehicle: water): 119 % of control; T/C (dose: 0.19 mg/kg/injection, schedule: Q04DX003 (ip), vehicle: water): 104 % of control; T/C (dose: 0.25 mg/kg/injection, schedule: Q01DX009 (ip), vehicle: water): 150 % of control; T/C (dose: 0.38 mg/kg/injection, schedule: Q04DX003 (ip), vehicle: water): 100 % of control; T/C (dose: 0.5 mg/kg/injection, schedule: Q01DX009 (ip), vehicle: water): 160 % of control and 164 % of control; T/C (dose: 0.75 mg/kg/injection, schedule: Q04DX003 (ip), vehicle: water): 104 % of control; T/C (dose: 0.86 mg/kg/injection, schedule: Q04DX003 (ip), vehicle: water): 154 % of control; T/C (dose: 1.44 mg/kg/injection, schedule: Q04DX003 (ip), vehicle: water): 163 % of control; T/C (dose: 1.5 mg/kg/injection, schedule: Q04DX003 (ip), vehicle: water): 106 % of control; T/C (dose: 2.0 mg/kg/injection, schedule: Q01DX009 (ip), vehicle: water): 101 % of control; T/C (dose: 2.4 mg/kg/injection, schedule: Q04DX003 (ip), vehicle: water): 175 % of control; T/C (dose: 2.5 mg/kg/injection, schedule: Q01DX001 (ip), vehicle: water): 153 % of control; T/C (dose: 3.0 mg/kg/injection, schedule: Q04DX003 (ip), vehicle: water): 113 % of control; T/C (dose: 4.0 mg/kg/injection, schedule: Q04DX003 (ip), vehicle: water): 117 % of control; T/C (dose: 5.0 mg/kg/injection, schedule: Q01DX001 (ip), vehicle: water): 153 % of control; T/C (dose: 6.0 mg/kg/injection, schedule: Q04DX003 (ip), vehicle: water): 123 % of control; T/C (dose: 6.67 mg/kg/injection, schedule: Q04DX003 (ip), vehicle: water): 97 % of control

**Q.** What does the source list for `O=C(Nc1ccccc1)C1(Cl)CCCCC1`?
**A.** T/C (dose: 100.0 mg/kg/injection, schedule: Q01DX001 (ip), vehicle: Klucel (hydroxypropylcellulose) (HPC)): 90 % of control; T/C (dose: 200.0 mg/kg/injection, schedule: Q01DX001 (ip), vehicle: Klucel (hydroxypropylcellulose) (HPC)): 92 % of control; T/C (dose: 400.0 mg/kg/injection, schedule: Q01DX001 (ip), vehicle: Klucel (hydroxypropylcellulose) (HPC)): 91 % of control

**Q.** `COC(=O)C1(C2CCCCCCCCCCC2=O)NC(=S)NC(=O)C1C#N` (configuration not stated) was tested. Which T/C (dose: 60.0 mg/kg/injection, schedule: Q01DX005 (ip), vehicle: saline) did it give?
**A.** 96 % of control

**Q.** And the T/C (dose: 120.0 mg/kg/injection, schedule: Q01DX005 (ip), vehicle: saline)?
**A.** 92 % of control

**Q.** What about the T/C (dose: 240.0 mg/kg/injection, schedule: Q01DX005 (ip), vehicle: saline) of the same compound?
**A.** 92 % of control

**Q.** Which T/C [1] does the source give for `CCc1cccc(CC)c1NC(=O)C(Sc1nc(-c2cccs2)cc(C(F)(F)F)c1C#N)c1ccccc1` (configuration not stated) here?
**A.** 94 % of control

**Q.** And the T/C [2]?
**A.** 94 % of control

**Q.** What about the T/C [3] of the same compound?
**A.** 89 % of control

**Q.** How did the T/C (dose: 12.5 mg/kg/injection, schedule: Q01DX009 (ip), vehicle: other) turn out when `COc1ccc(C(O)OC2CC3C=CC2C3)cc1` (configuration not stated) was run?
**A.** 114 % of control

**Q.** And the T/C (dose: 25.0 mg/kg/injection, schedule: Q01DX009 (ip), vehicle: other)?
**A.** 110 % of control

**Q.** And the T/C (dose: 50.0 mg/kg/injection, schedule: Q01DX009 (ip), vehicle: other)?
**A.** 114 % of control

**Q.** And the T/C (dose: 100.0 mg/kg/injection, schedule: Q01DX009 (ip), vehicle: other)?
**A.** 114 % of control

**Q.** And the T/C (dose: 200.0 mg/kg/injection, schedule: Q01DX009 (ip), vehicle: other)?
**A.** 111 % of control

**Q.** For `CC12CCC(OC3OC(CO)C(O)C(O)C3O)C=C1CCC1C2CCC2(C)C(c3ccc(=O)oc3)CCC12` (configuration not stated), which T/C (dose: 6.25 mg/kg/injection, schedule: Q01DX005 (ip), vehicle: Klucel (hydroxypropylcellulose) (HPC)) is on record?
**A.** 95 % of control

**Q.** What about the T/C (dose: 12.5 mg/kg/injection, schedule: Q01DX005 (ip), vehicle: Klucel (hydroxypropylcellulose) (HPC)) of the same compound?
**A.** 98 % of control

**Q.** And the T/C [4]?
**A.** 101 % of control and 98 % of control

**Q.** Which results are given for `CC(O)C(C)C(N)C(=O)O` (configuration not stated)?
**A.** T/C (dose: 8.25 mg/kg/injection, schedule: Q01DX005 (ip), vehicle: water): 100 % of control; T/C (dose: 16.5 mg/kg/injection, schedule: Q01DX005 (ip), vehicle: water): 98 % of control; T/C (dose: 33.0 mg/kg/injection, schedule: Q01DX005 (ip), vehicle: water): 100 % of control; T/C (dose: 66.0 mg/kg/injection, schedule: Q01DX005 (ip), vehicle: water): 99 % of control

**Q.** For `C=C=C(COC(C)=O)ON1CCC(C)CC1`, which T/C (dose: 9.0 mg/kg/injection, schedule: Q01DX001 (ip), vehicle: saline) is on record?
**A.** 102 % of control

**Q.** What about the T/C (dose: 18.12 mg/kg/injection, schedule: Q01DX001 (ip), vehicle: saline) of the same compound?
**A.** 102 % of control

**Q.** And the T/C (dose: 36.25 mg/kg/injection, schedule: Q01DX001 (ip), vehicle: saline)?
**A.** 100 % of control

**Q.** How did the T/C (dose: 6.25 mg/kg/injection, schedule: Q04DX002 (ip), vehicle: saline) turn out when `[Cl][Pt+2][Cl].[NH-]C(C(=O)O)C([NH-])C(=O)O` (configuration not stated) was run?
**A.** 96 % of control

**Q.** And the T/C (dose: 12.5 mg/kg/injection, schedule: Q04DX002 (ip), vehicle: saline)?
**A.** 96 % of control

**Q.** What about the T/C (dose: 25.0 mg/kg/injection, schedule: Q04DX002 (ip), vehicle: saline) of the same compound?
**A.** 100 % of control

**Q.** And the T/C (dose: 50.0 mg/kg/injection, schedule: Q04DX002 (ip), vehicle: saline)?
**A.** 117 % of control

**Q.** And the T/C [5]?
**A.** 101 % of control

**Q.** And the T/C [6]?
**A.** 97 % of control

**Q.** `C[Si](C)(C)C12CC3(CCCCC3)C1NC(=O)NC2=O` (configuration not stated) was tested. Which T/C [4] did it give?
**A.** 108 % of control

**Q.** And the T/C [1]?
**A.** 96 % of control

**Q.** And the T/C [2]?
**A.** 90 % of control

**Q.** And the T/C [3]?
**A.** 88 % of control

**Q.** Which results are given for `CC(C)C(NSC(=O)C1CCCN1Sc1ccc([N+](=O)[O-])cc1[N+](=O)[O-])C(=O)OCc1ccccc1` (configuration not stated)?
**A.** T/C [4]: 92 % of control; T/C [1]: 94 % of control; T/C [2]: 86 % of control and 93 % of control; T/C [3]: 93 % of control

**Q.** What does the source list for `O=c1[nH]c(=O)n2ncnc2[nH]1`?
**A.** T/C (dose: 25.0 mg/kg/injection, schedule: Q01DX009 (ip), vehicle: saline with Tween-80): 91 % of control; T/C (dose: 50.0 mg/kg/injection, schedule: Q01DX005 (ip), vehicle: saline with Tween-80): 95 % of control; T/C (dose: 50.0 mg/kg/injection, schedule: Q01DX009 (ip), vehicle: saline with Tween-80): 95 % of control; T/C (dose: 100.0 mg/kg/injection, schedule: Q01DX005 (ip), vehicle: saline with Tween-80): 95 % of control; T/C (dose: 100.0 mg/kg/injection, schedule: Q01DX009 (ip), vehicle: saline with Tween-80): 99 % of control; T/C (dose: 200.0 mg/kg/injection, schedule: Q01DX005 (ip), vehicle: saline with Tween-80): 105 % of control; T/C (dose: 200.0 mg/kg/injection, schedule: Q01DX009 (ip), vehicle: saline with Tween-80): 91 % of control

**Q.** `COc1cc(O)c2c(c1N)C(=O)c1ccccc1C2=O` was tested. Which T/C [1] did it give?
**A.** 105 % of control

**Q.** What about the T/C [2] of the same compound?
**A.** 106 % of control

**Q.** What about the T/C [3] of the same compound?
**A.** 101 % of control

**Q.** `Cn1c(=O)c2c(ncn2CCNC(c2ccccc2)c2ccccc2)n(C)c1=O` was tested. Which T/C (dose: 50.0 mg/kg/injection, schedule: Q01DX005 (ip), vehicle: water) did it give?
**A.** 107 % of control

**Q.** What about the T/C (dose: 100.0 mg/kg/injection, schedule: Q01DX005 (ip), vehicle: water) of the same compound?
**A.** 107 % of control

**Q.** And the T/C (dose: 200.0 mg/kg/injection, schedule: Q01DX005 (ip), vehicle: water)?
**A.** 107 % of control

**Q.** `[O-]c1nn(Cc2ccccc2)c2cccc[n+]12` was tested. Which T/C [5] did it give?
**A.** 103 % of control

**Q.** And the T/C [6]?
**A.** 99 % of control

**Q.** What about the T/C (dose: 400.0 mg/kg/injection, schedule: Q04DX002 (ip), vehicle: saline) of the same compound?
**A.** 100 % of control
